Laboratory results as given in ChEMBL document CHEMBL1201862, “PubChem BioAssay data set” (2004).
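Grown in 96-well plates, cells were treated for 48 hours with each compound at five concentrations. Insufficient inhibition: endpoint recorded as highest concentration tested. At the GI50, growth is halved.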 The source made the active and inactive calls. No stated cut-off is given here; in the data, active = GI50 up to about 1.1 µM and inactive = higher.

How the values were obtained:
Test in all cases: NCI-60 cell line screen, 48 h
K562 = test system: K562
A549 = test system: A549
NCI-H23 = test system: NCI-H23
HOP-92 = test system: HOP-92
HOP-62 = test system: HOP-62
T47D = test system: T47D
SW-620 = test system: SW-620
HT-29 = test system: HT-29
ACHN = test system: ACHN
OVCAR-8 = test system: OVCAR-8
SK-MEL-28 = test system: SK-MEL-28
RPMI-8226 = test system: RPMI-8226
HCT-116 = test system: HCT-116
LOX IMVI = test system: LOX IMVI
TK-10 = test system: TK-10
IGROV-1 = test system: IGROV-1
Malme-3M = test system: Malme-3M
UACC-62 = test system: UACC-62
SK-MEL-5 = test system: SK-MEL-5
SK-OV-3 = test system: SK-OV-3

Measured: GI50

CCOP(=O)(OCC)/C(C#N)=C/c1ccc(-c2cc(C(F)(F)F)cc(C(F)(F)F)c2)o1
inactive: K562 3.3 µM | A549 14.4 µM | NCI-H23 13 µM | HOP-92 8.41 µM | HOP-62 14.5 µM | T47D 11.9 µM | SW-620 14.9 µM | HT-29 6.55 µM | ACHN 12.7 µM | OVCAR-8 16.2 µM | SK-MEL-28 16.9 µM | RPMI-8226 3.59 µM | HCT-116 13.2 µM | LOX IMVI 3.34 µM | TK-10 16.4 µM

COc1ccc(-c2cc(-c3ccc(Nc4ccnc5cc(C(F)(F)F)ccc45)cc3)[nH]c(=O)c2C#N)cc1
inactive: K562 33.8 µM | A549 > 100 µM | NCI-H23 > 38.4 µM | IGROV-1 > 81.5 µM | HOP-92 49.7 µM | T47D 45.7 µM | Malme-3M > 100 µM | SW-620 > 100 µM | UACC-62 62.4 µM | HT-29 > 33.2 µM | ACHN > 42.1 µM | OVCAR-8 > 77.4 µM | SK-MEL-28 > 72.1 µM | SK-MEL-5 99.8 µM | RPMI-8226 > 100 µM | HCT-116 11.4 µM | LOX IMVI 16.6 µM | TK-10 > 43.6 µM

Cc1cc2c(cc1O)CC[C@@H]1[C@@H]2CC[C@]2(C)[C@@H](O)CC[C@@H]12
inactive: K562 2.58 µM | A549 8.02 µM | NCI-H23 13.6 µM | IGROV-1 15.8 µM | HOP-92 14.9 µM | SK-OV-3 11.5 µM | T47D 19.3 µM | Malme-3M 6.73 µM | SW-620 4.28 µM | HT-29 17.1 µM | ACHN 18.9 µM | OVCAR-8 19.1 µM | SK-MEL-28 10.8 µM | SK-MEL-5 4.67 µM | RPMI-8226 4.74 µM | LOX IMVI 11 µM | TK-10 24 µM

CC(C)(C)OC(=O)NC1CCCC1C(=O)C1=CCCC1 (stereo unspecified)
inactive: K562 > 100 µM | A549 > 100 µM | NCI-H23 85.7 µM | IGROV-1 33.4 µM | HOP-92 > 100 µM | SK-OV-3 > 100 µM | HOP-62 > 100 µM | T47D 28.6 µM | SW-620 > 100 µM | UACC-62 70.1 µM | HT-29 > 100 µM | ACHN > 100 µM | OVCAR-8 > 100 µM | SK-MEL-28 > 100 µM | SK-MEL-5 65 µM | RPMI-8226 > 100 µM | HCT-116 97.3 µM | LOX IMVI 50.6 µM

COc1cc2c(cc1OCCCCCOc1cc3c(cc1OC)C(=O)N1CCC[C@H]1CN3)N=C[C@@H]1CCCN1C2=O
inactive: K562 3.49 µM | A549 5.46 µM | NCI-H23 4.8 µM | IGROV-1 3.33 µM | HOP-92 17.2 µM | SK-OV-3 30.5 µM | HOP-62 2.15 µM | T47D 3.5 µM | Malme-3M 5.93 µM | SW-620 4.25 µM | UACC-62 1.56 µM | HT-29 5.04 µM | ACHN 4.03 µM | OVCAR-8 2.58 µM | SK-MEL-28 11.2 µM | SK-MEL-5 2.79 µM | HCT-116 4.85 µM | LOX IMVI 1.34 µM | TK-10 19.5 µM

COc1cc(OC)c(C/C=C/c2ccccc2)cc1O
inactive: K562 14.4 µM | A549 19.4 µM | NCI-H23 17.4 µM | IGROV-1 16.3 µM | HOP-92 13.6 µM | T47D 10.6 µM | Malme-3M 16.2 µM | SW-620 18.9 µM | UACC-62 15.5 µM | HT-29 17.7 µM | ACHN 25.7 µM | OVCAR-8 16.1 µM | SK-MEL-28 16.6 µM | SK-MEL-5 15.8 µM | RPMI-8226 14.9 µM | HCT-116 16.4 µM | LOX IMVI 16 µM | TK-10 16.4 µM

CC1(C)O[C@@H]2[C@@H](COC(C)(C)O[C@H]2C2SCCCS2)O1
inactive: K562 > 100 µM | A549 > 100 µM | NCI-H23 > 100 µM | HOP-92 92.7 µM | SK-OV-3 > 100 µM | HOP-62 > 100 µM | T47D > 100 µM | Malme-3M > 100 µM | SW-620 > 100 µM | UACC-62 > 100 µM | HT-29 > 100 µM | ACHN > 100 µM | OVCAR-8 > 100 µM | SK-MEL-28 > 100 µM | SK-MEL-5 > 100 µM | RPMI-8226 > 100 µM | HCT-116 > 100 µM

Nc1c(-c2nc3ccccc3s2)c2ccc([N+](=O)[O-])cc2c(=O)n1-c1cccc(C(=O)O)c1
inactive: A549 34.9 µM | NCI-H23 25.4 µM | HOP-92 24.2 µM | T47D 21 µM | SW-620 29.1 µM | UACC-62 21 µM | HT-29 86.1 µM | ACHN 33 µM | OVCAR-8 27.7 µM | SK-MEL-28 21.4 µM | SK-MEL-5 26.7 µM | HCT-116 21.2 µM | LOX IMVI 31.8 µM | TK-10 19 µM

Cc1ccc(S(=O)(=O)NNC(=O)Nc2ccc([N+](=O)[O-])cc2)cc1
inactive: K562 38.4 µM | A549 35.6 µM | NCI-H23 36.7 µM | IGROV-1 35.2 µM | HOP-92 43.8 µM | HOP-62 27.9 µM | T47D 2.65 µM | Malme-3M 76 µM | SW-620 33 µM | UACC-62 22.8 µM | HT-29 43.5 µM | ACHN > 100 µM | OVCAR-8 17.4 µM | SK-MEL-28 > 100 µM | SK-MEL-5 29 µM | RPMI-8226 20 µM | HCT-116 26.9 µM | LOX IMVI 52.4 µM | TK-10 67.3 µM

Cc1nnc2c3c(-c4ccccc4)c(-c4ccccc4)oc3nc(N(C)C)n12
inactive: K562 36.1 µM | A549 37.2 µM | NCI-H23 54.5 µM | IGROV-1 85.1 µM | HOP-92 > 100 µM | SK-OV-3 > 100 µM | T47D 83.6 µM | SW-620 44.6 µM | UACC-62 39.2 µM | HT-29 33.2 µM | ACHN 64.6 µM | OVCAR-8 78.9 µM | SK-MEL-28 72.1 µM | SK-MEL-5 35.2 µM | RPMI-8226 20.1 µM | HCT-116 24.8 µM | LOX IMVI 39.4 µM | TK-10 > 100 µM

Nc1ncn2c(n1)nc1ccccc12
inactive: K562 > 100 µM | A549 > 100 µM | NCI-H23 > 100 µM | IGROV-1 > 100 µM | HOP-92 37.2 µM | SK-OV-3 > 100 µM | T47D > 100 µM | Malme-3M > 100 µM | SW-620 > 100 µM | UACC-62 > 100 µM | HT-29 > 100 µM | ACHN > 100 µM | OVCAR-8 > 100 µM | SK-MEL-28 > 100 µM | SK-MEL-5 > 100 µM | RPMI-8226 > 100 µM | HCT-116 > 100 µM | TK-10 > 100 µM
